Experimental data taken from patent publication US20250188088A1, “COMPOUND AND USE THEREOF” (ONQUALITY PHARMACEUTICALS CHINA LTD., priority 2022, published 2025).

Tests used:
[1] = test system: skin contact delayed-type hypersensitivity; assay: Skin contact delayed-type hypersensitivity (DNFB) response test, ear swelling, topical ointment; format: in vivo; details: topical to ears, DNFB DTH, Balb/c mice, compared to blank ointment
Source text: Therapeutic Effect of Topical Administration of Compounds of the Present Application in Skin Contact Delayed-Type Hypersensitivity Response Test in Mice Delayed-type hypersensitivity (DTH) response in mouse skin is considered to be an effective model for clinical contact dermatitis and other T cell-mediated cutaneous immune diseases, such as atopic dermatitis and psoriasis. The DTH in mice shares the common features with these cutaneous immune diseases, including immunoinfiltration with an increase of inflammatory cytokines and hyperproliferation of keratinocytes. Balb/c mice were sensitized by topical administration of the antigen 2,4-dinitrofluorobenzene (DNFB) to the shaved back of mice on Days 0 and 1. On Day 5, the thickness of the ears was measured using an engineering micrometer. The measurement result was recorded and used as a baseline. The animals were then challenged with a total of 20 μL of DNFB (10 μL for the internal pinna and 10 μL for the external pinna) topically dosed to both ears at a concentration of 0.2%. The ears were measured again 24-72 hours after challenge. The compound ointment of the present application was applied topically to the ears of the animals throughout the allergic and challenge periods (Days −1˜7) or before or throughout the challenge period (generally Days 4˜7). The therapeutic effect was expressed by a reduction in ear swelling compared to that of the blank ointment. The compound causing a reduction of 20% or more was considered effective. Table 5 lists the skin contact delayed-type hypersensitivity experiment results in mice treated with the compound of the present application.

[2] = test system: rash caused by small molecule EGFR inhibitors; assay: Treatment of rash caused by small molecule EGFR inhibitors, topical ointment, rat model; format: in vivo, SD rats
Description: An Experiment to Verify the Treatment of Rash Caused by Small Molecule EGFR Inhibitors with Topical Administration of Compounds of the Present Application on a Rat Animal Model After the SD rats were fed and adapted for one week (about 200 g), the rats were divided into 10 rats per group. The hair on the back of rats was gently removed with an electric razor one day before the experiment, and then an intragastric administration test was carried out. EGFR inhibitors were dissolved in a sterile aqueous solution, and diluted with PBS buffer; the amount of each gavage was not more than 2 mL, and the dosage was shown in Table 3. […] The experiments were divided into the administration group with the compound of the present application and the control group. During the treatment experiment, EGFR inhibitors were intragastrically administered continuously every day. After the gavage, the administration group applied the compound ointment of the present application on the back (about 3 cm*3 cm) of rats, and the control group applied blank matrix ointment on the back (about 3 cm*3 cm); after application, the rats were fixed with a fixed cyclinder for about 4 hours, and then the rats were released, with the residual drug at the application site wiped off with clean water, and put back into the cage. The frequency of intragastric administration of EGFR inhibitors is shown in Table 3, but the compounds of the present application and blank ointment are applied only once a day. […] Table 3 lists the animal experiment combinations of various small molecule EGFR inhibitors and the compound ointment of the present application, as well as the corresponding experiment results (wherein, the value in the control rate column=the number of rats whose rash is milder in the administration group than that in the control group/the total number of rats in the administration group×100%).

[3] = test system: rash caused by monoclonal EGFR inhibitors; assay: Treatment of rash caused by monoclonal EGFR inhibitors, topical ointment, rat model; format: in vivo; details: SD rats
Description: An Experiment to Verify the Treatment of Rash Caused by Monoclonal EGFR Inhibitors with Topical Administration of Compounds of the Present Application on a Rat Animal Model After the SD rats were fed and adapted for one week (about 200 g), the rats were divided into 10 rats per group. The hair on the back of rats was gently removed with an electric razor one day before the experiment, and then an administration test was carried out. The EGFR monoclonal antibody solution diluted with normal saline was injected via tail vein twice a week, and the injection rate and time were shown in Table 4; the treatment experiment was started at the time point when rats developed a rash after continuous administration for 1-2 weeks. The experiments were divided into the administration group with the compound of the present application and the control group. During the treatment experiment, monoclonal antibody EGFR inhibitors were injected twice a week. the administration group applied the compound ointment of the present application on the back (about 3 cm*3 cm) of rats every day, and the control group applied blank matrix ointment on the back (about 3 cm*3 cm); after application, the rats were fixed with a fixed cyclinder for about 4 hours, and then the rats were released, with the residual drug at the application site wiped off with clean water, and put back into the cage. […] Table 4 lists the animal experiment combinations of monoclonal antibody EGFR inhibitors and the compound ointment of the present application, as well as the corresponding experiment results (wherein, the value in the control rate column=the number of rats whose rash is milder in the administration group than that in the control group/the total number of rats in the administration group×100%).

[4] = test system: rash caused by monoclonal EGFR inhibitors; assay: Prevention of rash caused by monoclonal EGFR inhibitors, topical ointment, rat model; format: in vivo, SD rats
Description: An Experiment to Verify the Prevention of Rash Caused by Monoclonal EGFR Inhibitors with Topical Administration of Compounds of the Present Application on a Rat Animal Model After the SD rats were fed and adapted for one week (about 200 g), the rats were divided into 10 rats per group. The hair on the back of rats was gently removed with an electric razor one day before the experiment, and then an administration test was carried out. The experiments were divided into the administration group with the compound of the present application and the control group. The EGFR monoclonal antibody solution diluted with normal saline was injected via the tail vein twice a week, and the injection rate and time are shown in Table 2. After injection, the administration group applied the compound ointment of the present application on the backs (about 3 cm*3 cm) of rats every day, and the control group applied blank matrix ointment (about 0.5 g) to the backs (about 3 cm*3 cm) of rats every day. After drug application, the rats were fixed with a fixed cyclinder for 4 h; after that, the rats were released and the residual drug at the application site was wiped off with clear water. Monoclonal antibody EGFR inhibitors were injected via the tail vein twice a week, and the compound of the present application and blank ointment were applied once a day until obvious rashes appeared in the control group. […] Table 2 lists the animal experiment combinations of various monoclonal antibody EGFR inhibitors and the compound ointment of the present application, as well as the corresponding experiment results (wherein, the value in the control rate column=the number of rats whose rash is milder in the administration group than that in the control group/the total number of rats in the administration group×100%).

[5] = Afatinib 40 mg/kg once a day, 6 dosing modelling days, ointment 5.0 wt% once a day
[6] = EAI045 80 mg/kg once a day, 8 dosing modelling days, ointment 5.0 wt% once a day
[7] = EAI045 80 mg/kg once a day, 8 dosing modelling days, ointment 10.0 wt% once a day
[8] = Osimertinib 60 mg/kg twice a day, 7 dosing modelling days, ointment 0.5 wt% once a day
[9] = Osimertinib 60 mg/kg twice a day, 7 dosing modelling days, ointment 1.0 wt% once a day
[10] = Osimertinib 60 mg/kg twice a day, 7 dosing modelling days, ointment 5.0 wt% once a day
[11] = Cetuximab 102 mg/kg twice a week via tail vein, ointment 5.0 wt%, 10 days of drug application
[12] = Cetuximab 100 mg/kg twice a week via tail vein, ointment 0.2 wt% once a day, 10 days
[13] = Panitumumab 10 mg/kg twice a week via tail vein, ointment 5.0 wt% once a day, 14 days
[14] = EAI045 80 mg/kg once a day, 8 dosing modelling days, ointment 1.0 wt% once a day

C[C@@H]1CN(C(=O)CC#N)[C@@]12CCN(c1ncnc3c1ccn3C(=O)N(C)CCOC(=O)c1ccn[nH]1)C2 [Compound A31]
Reduction Rate of Ear Swelling ([1]; ointment 1.0 wt%): 16% | Reduction Rate of Ear Swelling ([1]; ointment 5.0 wt%): 28% | Control Rate ([2]; Afatinib 40 mg/kg once a day, 6 dosing modelling days, ointment 0.1 wt% once a day): 10% | Control Rate ([2]; Afatinib 40 mg/kg once a day, 6 dosing modelling days, ointment 1.0 wt% once a day): 60% | Control Rate ([2]; Afatinib 40 mg/kg once a day, 6 dosing modelling days, ointment 3.0 wt% once a day): 70% | Control Rate [2, 5]: 90% | Control Rate ([2]; Afatinib 40 mg/kg once a day, 6 dosing modelling days, ointment 10.0 wt% once a day): 90% | Control Rate ([2]; EAI045 80 mg/kg once a day, 8 dosing modelling days, ointment 0.1 wt% once a day): 20% | Control Rate [2, 6]: 70% | Control Rate [2, 7]: 90% | Control Rate ([2]; Gefitinib 80 mg/kg twice a day, 10 dosing modelling days, ointment 0.3 wt% once a day): 20% | Control Rate ([2]; Gefitinib 80 mg/kg twice a day, 10 dosing modelling days, ointment 3.0 wt% once a day): 40% | Control Rate ([2]; Gefitinib 80 mg/kg twice a day, 10 dosing modelling days, ointment 10.0 wt% once a day): 90% | Control Rate [2, 8]: 40% | Control Rate [2, 9]: 60% | Control Rate [2, 10]: 70%

CN(CCOC(=O)C1CCCCC1)C(=O)n1ccc2c(-c3cnn(C4(CC#N)CN(C5CCN(C(=O)c6ccnc(C(F)(F)F)c6F)CC5)C4)c3)ncnc21 [Compound A36]
Reduction Rate of Ear Swelling ([1]; ointment 1.0 wt%): 29% | Reduction Rate of Ear Swelling ([1]; ointment 5.0 wt%): 34% | Control Rate ([2]; Afatinib 40 mg/kg once a day, 6 dosing modelling days, ointment 0.5 wt% once a day): 20% | Control Rate [2, 5]: 60% | Control Rate ([2]; BPI-7711 60 mg/kg once a day, 6 dosing modelling days, ointment 5.0 wt% once a day): 30% | Control Rate ([2]; EAI045 80 mg/kg once a day, 8 dosing modelling days, ointment 0.5 wt% once a day): 20% | Control Rate [2, 6]: 40% | Control Rate ([2]; Larotinib 20 mg/kg once a day, 6 dosing modelling days, ointment 5.0 wt% once a day): 60% | Control Rate [2, 9]: 30% | Control Rate ([2]; Osimertinib 60 mg/kg twice a day, 7 dosing modelling days, ointment 10.0 wt% once a day): 50%

C[C@@H]1CN(C(=O)CC#N)[C@@]12CCN(c1ncnc3c1ccn3C(=O)N(C)CCOC(=O)C1CCCCC1)C2 [Compound A28]
Control Rate ([3]; Cetuximab 102 mg/kg twice a week via tail vein, ointment 0.3 wt%, 10 days of drug application): 40% | Control Rate [3, 11]: 70% | Control Rate ([3]; Panitumumab 6 mg/kg twice a week via tail vein, ointment 2.0 wt%, 8 days of drug application): 60% | Control Rate ([3]; Panitumumab 6 mg/kg twice a week via tail vein, ointment 10.0 wt%, 8 days of drug application): 100% | Control Rate [4, 12]: 30% | Control Rate ([4]; Cetuximab 100 mg/kg twice a week via tail vein, ointment 5.0 wt% once a day, 10 days): 70% | Control Rate ([4]; Panitumumab 10 mg/kg twice a week via tail vein, ointment 0.2 wt% once a day, 14 days): 45% | Control Rate [4, 13]: 100% | Control Rate ([2]; BPI-7711 60 mg/kg once a day, 6 dosing modelling days, ointment 3.0 wt% once a day): 80% | Control Rate ([2]; Dacomitinib 10 mg/kg once a day, 5 dosing modelling days, ointment 0.2 wt% once a day): 30% | Control Rate ([2]; Dacomitinib 10 mg/kg once a day, 5 dosing modelling days, ointment 2.0 wt% once a day): 60% | Control Rate ([2]; Dacomitinib 10 mg/kg once a day, 5 dosing modelling days, ointment 5.0 wt% once a day): 80% | Control Rate ([2]; Dacomitinib 10 mg/kg once a day, 5 dosing modelling days, ointment 10.0 wt% once a day): 60% | Control Rate [2, 14]: 40% | Control Rate [2, 7]: 100% | Control Rate ([2]; Gefitinib 80 mg/kg twice a day, 10 dosing modelling days, ointment 1.0 wt% once a day): 30% | Control Rate ([2]; Gefitinib 80 mg/kg twice a day, 10 dosing modelling days, ointment 5.0 wt% once a day): 30% | Control Rate ([2]; Larotinib 20 mg/kg once a day, 6 dosing modelling days, ointment 3.0 wt% once a day): 40% | Control Rate [2, 8]: 20% | Control Rate [2, 10]: 60%

C[C@@H]1CN(C(=O)CC#N)[C@@]12CCN(c1ncnc3c1ccn3C(=O)N(C)CCOC(=O)C1CC1)C2 [Compound A27]
Control Rate ([3]; Cetuximab 102 mg/kg twice a week via tail vein, ointment 1.0 wt%, 10 days of drug application): 30% | Control Rate [3, 11]: 80% | Control Rate ([3]; Panitumumab 6 mg/kg twice a week via tail vein, ointment 0.1 wt%, 8 days of drug application): 60% | Control Rate ([3]; Panitumumab 6 mg/kg twice a week via tail vein, ointment 3.0 wt%, 8 days of drug application): 90% | Control Rate [4, 12]: 20% | Control Rate ([4]; Cetuximab 100 mg/kg twice a week via tail vein, ointment 3.0 wt% once a day, 10 days): 40% | Control Rate ([4]; Panitumumab 10 mg/kg twice a week via tail vein, ointment 1.0 wt% once a day, 14 days): 45% | Control Rate [4, 13]: 70% | Control Rate [2, 14]: 60% | Control Rate ([2]; EAI045 80 mg/kg once a day, 8 dosing modelling days, ointment 3.0 wt% once a day): 80% | Control Rate ([2]; Osimertinib 60 mg/kg twice a day, 7 dosing modelling days, ointment 0.2 wt% once a day): 40% | Control Rate ([2]; Osimertinib 60 mg/kg twice a day, 7 dosing modelling days, ointment 4.0 wt% once a day): 100%
